{"source": "paper PMC11904221", "about": "(EMBO Molecular Medicine, 2025)", "key": {"[1]": {"assay": "Pharmacokinetic profile in mice, LC/MS", "type": "in vivo, mouse", "details": "mouse, iv, 100 mg/kg", "experimental": "Pharmacokinetic profile of APLN-DM in mice\nThe aim of the current study was to evaluate pharmacokinetic properties of APLN-DM peptide administrated intravenously (IV) or intraperitoneously (IP) in Balb/C mice. […]\nfor the IP group). Development of quantification method was performed using liquid chromatography coupled to mass spectrometry (LC/MS).\nResults: Samples obtained in vivo were analyzed according to quantification-developed method and the peptide was detectable until 15 minutes after administration. Analysis allowed determining that APLN-DM […]\nAll animals were divided to three groups of 27 animals, one of 12 animals and one of 3 animals (vehicle) and will receive the corresponding test item according to Table 1. Each animal was weighed and administered at the appropriate volume.\nConcentration ROA Blood Individual animal numbers\nGroup No. Treatment Dose Collect\nTable 11 - Group allocation\nDevelopment of analytic method\nStandard range from 0.5 to 100 µM was prepared and analysed for each fragmented ion as previously […]\nStandard curves obtained for each ion are represented in Figure 6.\nFigure 8: Standard curves obtained by quantification of each fragmented ion The best linearity was obtained by quantifying the fragmented ion 785 (z=5).\nQuantification of APLN-DM in samples\nSummary of analytical method development:\nQuantification method was performed according to previous work. In summary, samples were analysed with a LC-MS triple quadripole system (ESI QqQ). The chromatographic system was a UPLC activity (Waters) coupled to a mass spectrometer TSQ Quantum Ultra (Thermo) equipped with triple quadripole analyser and electrospray ionisation (ESI) system. The selected column was Kinetex F5 […] 50x2.1 mm (Phenomenex). The analysis was made by quantifying fragmented ion z=5 (m/z=785) in samples compared […]\nquantitation was previously determined to be 0.5 µM. Samples were analysed after protein precipitation as […]\nIn vivo phase samples analysis\nAs the stability of peptide is low, even in frozen plasma, it was decided to re-run the in vivo phase for the highest dose and to use freshly prepared samples.\n26 samples were used for analysis.\nOnly samples taken 5 and 10 minutes after peptide administration presented detectable concentrations (see\nTable 9). While 15 min results were on the level of accuracy (linearity threshold values). At a later time […]\nestimated based on the 5 and 10 min measurements.\nSample ID Area Calculated amount"}, "[2]": {"details": "mouse, in vivo, ip", "experimental": "A single intraperitoneal injection on day 1 was followed by a 14-day observation period. Parameters monitored included mortality, morbidity, clinical signs, and body weight. At the study’s end, gross pathology and organ necropsy were conducted. […] Evaluations encompassed clinical observations, body weight, food consumption, hematology, blood chemistry, gross pathology, selected organ necropsy, and weight, and histopathology examinations. Comprehensive study details are in Appendix pharmacological studies-1 and -2. […]\nwas assessed in the present study.\nMethods: 4 groups (5 males and 5 females per group) were assigned for this study. In each gender, reference item control groups (1F+1M) received the reference item (Saline Solution, NaCl 0,9%) and 3 treated groups […]\n4F+4M) mg/kg. All animals were IP dosed and followed daily for 2 weeks (5 days a week). During the study, mortality and general clinical observation, body weight, food consumption, hematology, blood chemistry, gross pathology, selected organ necropsy and weight and histopathology examination of control and high dose groups […]\ndosing of five female and five male mice (Table 1 and Table 2). The choice of the number and the gender of the animals were based on OECD guidelines.\nStudy variables and end points […]\nObservations for signs of morbidity and mortality were performed daily. […] The time of death was recorded as precisely as possible. […]"}, "[3]": {"details": "for microsomal CLint: liver microsomes"}, "in vitro [4]": {"assay": "in vitro"}, "[5]": {"details": "mouse"}, "[6]": {"details": "pH 7.4, aqueous buffer"}, "in vitro [7]": {"assay": "in vitro", "remark": "listed apart in the source"}}, "note": "Like-named read-outs stand apart in the source and are kept apart here. Where a SMILES comes first, the peptide text is derived from it.", "data": [{"smiles": "CSCC[C@H](NC(=O)[C@@H]1CCCN1C(=O)CNC(=O)[C@H](CCCCN)NC(=O)[C@H](Cc1c[nH]cn1)NC(=O)[C@H](CO)NC(=O)[C@H](CC(C)C)NC(=O)[C@H](CCCNC(=N)N)NC(=O)[C@@H]1CCCN1C(=O)[C@H](CCCNC(=N)N)NC(=O)[C@H](CCC(N)=O)NC(=O)[C@H](CO)NC(=O)[C@H](CO)NC(=O)[C@H](Cc1ccccc1)NC(=O)[C@H](CCCCN)NC(=O)[C@H](CO)NC(=O)[C@H](CO)NC(=O)CNC(=O)CNC(=O)[C@H](CCC(N)=O)NC(=O)[C@H](Cc1c[nH]c2ccccc12)NC(=O)[C@@H]1CCCN1C(=O)CNC(=O)[C@@H]1CCCN1C(=O)CNC(=O)[C@H](CC(N)=O)NC(=O)[C@H](CCCNC(=N)N)NC(=O)[C@H](CO)NC(=O)CNC(=O)[C@H](CCCNC(=N)N)NC(=O)[C@@H]1CCCN1C(=O)[C@H](CCC(N)=O)NC(=O)[C@@H](NC(=O)[C@@H](N)CC(C)C)C(C)C)C(=O)N1CCC[C@H]1C(=O)N[C@@H](Cc1ccccc1)C(=O)O", "note": "[APLN-DM] (H-LVQPRGSRNGPGPWQGGSSKFSSQRPRLSHKGPMPF-OH)", "values": [{"measurement": "level at time molar at 5 min", "setting": "[1]; Balb/C, plasma, group 2F, 100 mg/kg IV, 5 min, samples 1-3, no unit printed (standards in µM), read-out: Calculated amount in plasma sample", "value": 0.793, "unit": "µM"}, {"measurement": "level at time molar at 10 min", "setting": "[1]; Balb/C, plasma, group 2F, 100 mg/kg IV, 10 min, samples 1-3, read-out: Calculated amount in plasma sample", "value": 658, "unit": "nM"}, {"measurement": "half-life", "setting": "[1]; female, Balb/C mice plasma, LC/MS, estimated from the 5 and 10 min samples, read-out: half-life in vivo in mice", "value": "~0.333", "unit": "h"}, {"measurement": "MTD repeated administrations / highest tested dose found safe", "setting": "[2]", "value": 300, "unit": "mg/kg/day"}, {"measurement": "clearance category", "setting": "[3]", "value": "high"}, {"measurement": "Half-life, 1st", "setting": "[3]; human", "value": 1.24, "unit": "h"}, {"measurement": "Half-life, 2nd", "setting": "[3]; human", "value": 1.14, "unit": "h"}, {"measurement": "Half-life, Mean", "setting": "[3]; human", "value": "> 1", "unit": "h"}, {"measurement": "microsomal CLint", "setting": "[3]; human", "value": "< 116", "unit": "µL/min/mg"}, {"measurement": "microsomal CLint", "setting": "[3]", "value": "< 116", "unit": "µL/min/mg"}, {"measurement": "% Protein bound, 1st", "setting": "in vitro [4]", "value": 26.1, "unit": "%"}, {"measurement": "% Protein bound, 2nd", "setting": "in vitro [4]", "value": 26.9, "unit": "%"}, {"measurement": "% Recovery, Mean", "setting": "in vitro [4]", "value": 93, "unit": "%"}, {"measurement": "fraction unbound at 4 h, 1e-05 M", "setting": "in vitro [4]; CD-1, mouse, plasma", "value": 0.74}, {"measurement": "Half-life, 1st", "setting": "[5]", "value": 0.645, "unit": "h"}, {"measurement": "Half-life, 2nd", "setting": "[5]", "value": 1.867, "unit": "h"}, {"measurement": "half-life", "setting": "[5]; liver microsomes", "value": "> 1", "unit": "h"}, {"measurement": "microsomal CLint", "setting": "[5]; liver microsomes", "value": "< 116", "unit": "µL/min/mg"}, {"measurement": "solubility thermodynamic", "setting": "[6]", "value": 187, "unit": "µM"}, {"measurement": "Half-life in human plasma", "setting": "in vitro [7]", "value": "> 18", "unit": "h"}, {"measurement": "Half-life, 1st", "setting": "in vitro [7]; human", "value": 21.173, "unit": "h"}, {"measurement": "Half-life, 2nd", "setting": "in vitro [7]; human", "value": 16.21, "unit": "h"}, {"measurement": "half-life at 1 µM", "setting": "in vitro [7]; human, plasma", "value": 18.7, "unit": "h"}, {"measurement": "remaining at 0.5 h", "setting": "in vitro [7]; human, plasma", "value": 99, "unit": "%"}, {"measurement": "remaining at 1 h", "setting": "in vitro [7]; human, plasma", "value": 98, "unit": "%"}, {"measurement": "remaining at 2 h", "setting": "in vitro [7]; human, plasma", "value": 93, "unit": "%"}]}]}
